Here are results for four molecules from patent US20050245489A1, “Chromene-containing compounds with anti-tubulin and vascular targeting activity” (priority 2004, published 2005).

As usually defined, the GI50 is the concentration at which growth is held to half of that of the control. Read a high GI50 as lower sensitivity of the cells. In general, pIC50 refers to the negative decadic logarithm of the IC50, by convention in mol/L.

pIC50: −log10 of the molar value. Converted amounts (≈) assume the structure as drawn.

For one assay, the system named is P388 leukemia cell lines. In words: In vitro cytotoxicity (SRB) against P388 leukemia cell line. The class given is cell-based, mouse. As to conditions: 48 hours incubation. The procedure: (§1) Newly prepared compounds were evaluated for cytotoxic activity against a variety of cell lines derived from human tumors using an assay system similar to the National Cancer Institute procedure previously described (Monks et al, J. Natl. Cancer Inst., 1991). Briefly, the cell suspensions, diluted according to the particular cell type and the expected target cell density (5,000-40,000 cells per well based on cell growth characteristics), were added by pipet (100 μl) to 96-well microtiter plates. Inoculates were allowed a preincubation time of 24-28 hours at 37° C. for stabilization. Incubation with the inhibitor compounds lasted for 48 hours in 5% CO2 atmosphere and 100% humidity. Determination of cell growth was performed by in situ fixation of cells, followed by staining with a protein-binding dye sulforhodamine B (SRB), which binds to the basic amino acids of cellular macromolecules. The solubilized stain was measured spectrophotometrically.
Several compounds were evaluated for cytotoxic activity against […] P388 leukemia cell lines. […] These and additional compounds were evaluated in terms of growth inhibitory activity against several other human cancer cell lines including: central nervous system (“CNS”, SF-268), pancreas (BXPC-3), non-small cell lung cancer (“lung-NSC”, NCI-H460), breast (MCF-7), colon (KM20L2), ovarian (OVCAR-3), and prostate (DU-145). […]

The test system of assay [1] is SF-268 (CNS) cancer cell line. In words: In vitro growth inhibition (SRB), SF-268. As to conditions: 48 hours; for GI50: Homo sapiens. The class given is cell-based, human. The procedure: as §1
(§2) Several compounds were evaluated for cytotoxic activity against […] P388 leukemia cell lines. The effective dose or ED50 value (defined as the effective dosage required to inhibit 50% of cell growth) was measured. These and additional compounds were evaluated in terms of growth inhibitory activity against several other human cancer cell lines including: central nervous system (“CNS”, SF-268), pancreas (BXPC-3), non-small cell lung cancer (“lung-NSC”, NCI-H460), breast (MCF-7), colon (KM20L2), ovarian (OVCAR-3), and prostate (DU-145). The growth inhibition GI50 (defined as the dosage required to inhibit tumor cell growth by 50%) is listed for each cell line.

The subject of assay [2] is BXPC-3 (pancreas) cancer cell line. In words: In vitro growth inhibition (SRB), BXPC-3. The class given is cell-based, human. To be noted: 48 hours; for GI50: Homo sapiens. The method, then:
as §1, §2

The subject of assay [3] is NCI-H460 (lung-NSC) cancer cell line. Description: In vitro growth inhibition (SRB), NCI-H460. The class given is cell-based, human. As to conditions: 48 hours; for GI50: Homo sapiens. The procedure:
as §1, §2

The test system of assay [4] is MCF-7 (breast) cancer cell line. In words: In vitro growth inhibition (SRB), MCF-7. The class given is cell-based, human. To be noted: for GI50: Homo sapiens, MCF7, 48 hours. The procedure: as §1, §2
In assay [5] the test system is KM20L2 (colon) cancer cell line. In words: In vitro growth inhibition (SRB), KM20L2. It counts as cell-based, human. As to conditions: for GI50: Homo sapiens, KM-20L2, 48 hours. The method, then:
as §1, §2

Assay [6] relates to DU-145 (prostate) cancer cell line. In words: In vitro growth inhibition (SRB), DU-145. It counts as cell-based, human. To be noted: 48 hours; for GI50: Homo sapiens. The procedure: as §1, §2
Assay [7] deals with MHEC-5T hemangioendothelioma tumor. In words: Inhibition of tumor blood flow, Fluorescent Bead Assay. It counts as in vivo, SCID mice. To be noted: 24 hours post-treatment, vessel area per tumor tissue area as percentage of control. The method, then: The antivascular effects of the chromene phosphate prodrug were assessed in tumor-bearing mice using a Fluorescent Bead Assay. A MHEC-5T hemangioendothelioma tumor model was established by subcutaneous injection of 0.5×10^6 cultured transformed cell murine myocardial vascular endothelial cell line (“MHEC5-T”) cells into the right flank of Fox Chase CB-17 Severe Combined Immunodeficient (“SCID”) mice. […] At 24 hours post-treatment, mice were injected intravenously with 0.25 ml of diluted FluoSphere beads (1:6 in physiological saline) in the tail vein, sacrificed after 3 minutes, and tumor was excised for cryosectioning. Tumor cryosections at a thickness of 8 um were directly examined using quantitative fluorescent microscopy. Blood vessels were indicated by blue fluorescence from injected beads. For quantification, image analysis of 3 sections from three tumors treated in each group were examined and vascular shutdown was expressed as vessel area (mm^2) per tumor tissue area (mm^2) as a percentage of the control (“% VAPM”).

A further assay concerns purified tubulin. Description: In vitro inhibition of tubulin polymerization. It counts as biochemical. To be noted: purified bovine brain tubulin 1.5 mg/ml, 15 min preincubation at 37° C., GTP-induced, 350 nm. The procedure: IC50 values for tubulin polymerization were determined according to a previously described procedure (Bai et al., Cancer Research, 1996). Purified tubulin is obtained from bovine brain cells as previously described (Hamel and Lin, Biochemistry, 1984). Various amounts of inhibitor were preincubated for 15 minutes at 37° C. with purified tubulin. After the incubation period, the reaction was cooled and GTP was added to induce tubulin polymerization. Polymerization was then monitored in a Gilford spectrophotometer at 350 nm. The final reaction mixtures (0.25 ml) contained 1.5 mg/ml tubulin, 0.6 mg/ml microtubule-associated proteins (MAPs), 0.5 mM GTP, […], 4% DMSO and 0.1M 4-morpholineethanesulfonate buffer (MES, pH 6.4). IC50 is the amount of inhibitor needed to inhibit tubulin polymerization 50% with respect to the amount of […] that occurs in the absence of inhibitor.

For the molecule “3-(3′,4′,5′-Trimethoxybezoyl)-7-methoxy-2H-chromene-phosphate salt [Compound 7]”, the “ED50 for P-388 Cell Line” value with P388 leukemia cell lines amounted to 0.173 µg/mL. Further, the “GI50 for Cell Line SF-268” value in assay [1] came to 0.034 µg/mL. For the same molecule, in assay [2], the “GI50 for Cell Line BXPC-3” value is 0.44 µg/mL. In addition, in [3], the “GI50 for Cell Line NCI-H460” value stood at 0.14 µg/mL. In addition, the “GI50 for Cell Line MCF-7” value in assay [4] (48 hours) stood at 0.056 µg/mL. Besides, the “GI50 for Cell Line KM20L2” value in assay [5] (48 hours) was found to be 3.5 µg/mL. Also, in assay [6], the “GI50 for Cell Line DU-145” value was found to be 0.18 µg/mL. The “% VAPM at 10 mg/kg dose” value in [7] (10 mg/kg single i.p. dose) is listed as 57%. Besides, the “% VAPM at 100 mg/kg dose” value in assay [7] (100 mg/kg single i.p. dose) came to 33%.
`COc1ccc2c(c1)OCC(C(=O)c1cc(OC)c(OC)c(OC)c1)=C2` [Compound 8, 3-(3′, 4′, 5′-Trimethoxybenzoyl)-7-methoxy-2H-chromene]: the 50% growth inhibitory concentration (GI50) in [1] is 0.32 µg/mL (≈ 0.898 µM); in [2] it was 0.27 µg/mL (≈ 0.758 µM); in assay [3], 0.3 µg/mL (≈ 0.842 µM); in assay [4], 0.3 µg/mL (≈ 0.842 µM); in assay [5], 0.47 µg/mL (≈ 1.32 µM); in assay [6], 0.26 µg/mL (≈ 0.73 µM).
Regarding `COc1ccc2c(c1O)OCC(C(=O)c1cc(OC)c(OC)c(OC)c1)=C2` [Compound 5, 3-(3′,4′,5′-Trimethoxybezoyl)-7-methoxy-8-hydroxy-2H-chromene], the 50% growth inhibitory concentration (GI50) in assay [1] was determined as 0.022 µg/mL (≈ 0.0591 µM); in assay [2], 3.5 µg/mL (≈ 9.4 µM); in [3], 0.46 µg/mL (≈ 1.24 µM); in [4], 0.0055 µg/mL (≈ 0.0148 µM); in assay [5], 3.2 µg/mL (≈ 8.59 µM); in assay [6], 0.049 µg/mL (≈ 0.132 µM).
The molecule `COc1cc2c(cc1O)C=C(C(=O)c1cc(OC)c(OC)c(OC)c1)CO2` [Compound 9, 3-(3′, 4′, 5′-Trimethoxybenzoyl)-6-hydroxy-7-methoxy-2H-chromene] had a pIC50 in the assay on purified tubulin of 5.40 to 6.00. The “ED50 for P-388 Cell Line” value in the assay on P388 leukemia cell lines came to 0.25 µg/mL. The GI50 was 0.45 µg/mL (≈ 1.21 µM) in assay [1]; 0.27 µg/mL (≈ 0.725 µM) in assay [2]; 0.32 µg/mL (≈ 0.859 µM) in assay [3]; 0.069 µg/mL (≈ 0.185 µM) in [4]; 2.3 µg/mL (≈ 6.18 µM) in [5]; 0.16 µg/mL (≈ 0.43 µM) in assay [6].
